Laboratory results taken from patent US7153535B2, “Protein sweetener” (Wisconsin Alumni Research Foundation, priority 2002, dated 2006).

What was measured:
[1] = tested on: taste fibers predominantly responsive to sweeteners (S fibers) in the Chorda Tympani (CT) nerves; test: taste nerve fiber recordings during stimulation of the tongue; type: in vivo; conditions: fiber nerve recordings from rhesus monkey Chorda Tympani nerves, FIG. 4
Experimental: (§1) To test the sweetness potency of SEQ ID NOS. 3 and 5, we tested the perception of sweetness using a concentration of 100 ug/ml of the protein in water. One test panel consisted of monkeys. The other test panel was of humans. The response measured in the monkeys was level of activity of taste nerve fibers during the stimulation of the tongue with different compounds being tested. Humans were requested to score the sweetness sensations of the stimuli with a magnitude labeled scale in accordance with the techniques of B. Green et al., 21 Chemical Senses 323 (1996) (e.g. barely detectable; weak; moderate; strong; very strong; strongest imaginable).
We used rhesus monkey nerves as an animal model to test primate taste responses to sweet proteins. […] The triangle markings on FIG. 4 indicate exposure timing.

[2] = level of heat typically present during baking of foods; cited from earlier work
humans = test: human panel sweetness scoring on a labeled magnitude scale; type: in vivo; conditions: 100 ug/ml of the protein in water; monkey and human test panels
Experimental: as §1

Substance	nerve response recording profile compared with sucrose [1]	stability to heat [2]	sweetness relative to recombinantly produced wild type (des-pGlul) (humans)
Brazzein: sweet protein; SEQ ID NO: 1 is natural Brazzein minus the beginning Glu, recombinantly produced wild type (DKCKKVYENYPVSKCQLANQCNYDCKLDKHARSGECFYDEKRNLQCICDYCEY; listed as Pentadiplandra brazzeana)	more distinct	stable	
D29K: Brazzein variant in which the Asp at position 29 is replaced with Lys (DKCKKVYENYPVSKCQLANQCNYDCKLKKHARSGECFYDEKRNLQCICDYCEY)			3 to 4 times
D29N: Brazzein variant in which the Asp at position 29 is replaced with Asn (DKCKKVYENYPVSKCQLANQCNYDCKLNKHARSGECFYDEKRNLQCICDYCEY)	remarkably close to that of sucrose		3 to 4 times
Glu36Ala: comparative Brazzein variant with Glu at position 36 replaced by Ala (QDKCKKVYENYPVSKCQLANQCNYDCKLDKHARSGACFYDEKRNLQCICDYCEY; UniProt P56552 1-54, looked up, variant E36A)	more distinct		
